Data as given in patent US20090226368A1, “Androgen-Receptor (AR) Ligands for Use in the Treatment and Diagnosis of AR-Related Pathologies” (priority 2005, published 2009).

Experiments:
[1] = In-vivo blood stability in nude mice; settings: blood sampled after 0, 15, 30 and 35 minutes, phosphor-imagers
Experimental: In-vivo blood stability experiments were performed for the ^11C-labeled (R)-Compound 3. The compound was injected into nude mice. Blood was sampled from the mice after 0, 15, 30 and 35 minutes. The labeled compound was extracted and evaluated using phosphor-imagers.

[2] = Biodistribution in normal Lewis male rats, gamma-counter; type: in vivo; settings: tail vein
Experimental: The distribution of ^11C-labeled (R)-Compound 3 was measured in normal Lewis male rats which have been kept under SPF conditions. The labeled compound was injected through the tail vein of the rat. The rats were sacrificed 30, 60 and 90 minutes post injection, and prostate, blood, liver, muscle and kidney were removed and the activity in each organ was measured by gamma-counter (Tables 2A-D).

[3] = PET-CT scan of distribution, bladder activity; type: in vivo; settings: normal Lewis male rats, 40 minutes post injection
Experimental: In some clinically used radio-tracers, such of FDG, activity is observed in the bladder, and mask the prostate. […] The distribution of the compound was scanned by human PET-CT. Counter dye was injected to the animal 10 minutes prior to the injection of the labeled compound and the exact location of the bladder was detected by CT. In accordance with the biodistribution experiment, activity was measured in the metabolic organs.

[4] = 30 minutes post injection, Table 2A
[5] = 60 minutes post injection, Table 2B
[6] = 60 minutes post injection, Table 2B (Rats 1, 2)
[7] = 60 minutes post injection, Table 2C
[8] = 60 minutes post injection, Table 2C (Rats 3, 4)
[9] = 90 minutes post injection, Table 2D

With `CN([11CH3])C[C@@](C)(O)C(=O)Nc1ccc(F)c(C(F)(F)F)c1` [^11C-labeled (R)-Compound 3] the “metabolites in blood in vivo” value [1] was “No metabolites were evident”, the “Biodistribution Blood, Av.” value [2, 4] was 0.76 % id/g and the “Biodistribution Blood, Rat 1” value [2, 4] was 0.89 % id/g. For the same compound, the “Biodistribution Blood, Rat 2” value [2, 4] was 0.63 % id/g, the “Biodistribution Kidney, Av.” value [2, 4] was 12.43 % id/g and the “Biodistribution Kidney, Rat 1” value [2, 4] was 15.57 % id/g. For the same compound, the “Biodistribution Kidney, Rat 2” value [2, 4] was 9.29 % id/g, the “Biodistribution Liver, Av.” value [2, 4] was 3.96 % id/g and the “Biodistribution Liver, Rat 1” value [2, 4] was 4.26 % id/g. For the same compound, the “Biodistribution Liver, Rat 2” value [2, 4] was 3.67 % id/g, the “Biodistribution Muscle, Av.” value [2, 4] was 1.14 % id/g and the “Biodistribution Muscle, Rat 1” value [2, 4] was 1.07 % id/g. For the same compound, the “Biodistribution Muscle, Rat 2” value [2, 4] was 1.21 % id/g, the “Biodistribution Prostate, Av.” value [2, 4] was 1.47 % id/g and the “Biodistribution Prostate, Rat 1” value [2, 4] was 1.67 % id/g. For the same compound, the “Biodistribution Prostate, Rat 2” value [2, 4] was 1.27 % id/g, the “Biodistribution Blood, Rat 1” value [2, 5] was 0.54 % id/g and the “Biodistribution Blood, Rat 2” value [2, 5] was 0.41 % id/g. The “Biodistribution Kidney, Rat 1” value [2, 5] was 5.03 % id/g, the “Biodistribution Kidney, Rat 2” value [2, 5] was 3.54 % id/g and the “Biodistribution Liver, Rat 1” value [2, 5] was 8.79 % id/g. For the same compound, the “Biodistribution Liver, Rat 2” value [2, 5] was 4.61 % id/g, the “Biodistribution Muscle, Rat 1” value [2, 5] was 1.02 % id/g and the “Biodistribution Muscle, Rat 2” value [2, 5] was 0.68 % id/g. For the same compound, the “Biodistribution Prostate, Rat 1” value [2, 5] was 2.32 % id/g, the “Biodistribution Prostate, Rat 2” value [2, 5] was 1.05 % id/g and the “Biodistribution Blood, Av.” value [2, 6] was 0.48 % id/g. The “Biodistribution Kidney, Av.” value [2, 6] was 4.29 % id/g, the “Biodistribution Liver, Av.” value [2, 6] was 6.70 % id/g and the “Biodistribution Muscle, Av.” value [2, 6] was 0.85 % id/g. For the same compound, the “Biodistribution Prostate, Av.” value [2, 6] was 1.69 % id/g, the “Biodistribution Blood, Rat 3” value [2, 7] was 0.28 % id/g and the “Biodistribution Blood, Rat 4” value [2, 7] was 0.35 % id/g. The “Biodistribution Kidney, Rat 3” value [2, 7] was 2.48 % id/g, the “Biodistribution Kidney, Rat 4” value [2, 7] was 2.54 % id/g and the “Biodistribution Liver, Rat 3” value [2, 7] was 5.30 % id/g. For the same compound, the “Biodistribution Liver, Rat 4” value [2, 7] was 5.14 % id/g, the “Biodistribution Muscle, Rat 3” value [2, 7] was 0.55 % id/g and the “Biodistribution Muscle, Rat 4” value [2, 7] was 0.56 % id/g. The “Biodistribution Prostate, Rat 3” value [2, 7] was 1.13 % id/g, the “Biodistribution Prostate, Rat 4” value [2, 7] was 1.18 % id/g and the “Biodistribution Blood, Av.” value [2, 8] was 0.32 % id/g. For the same compound, the “Biodistribution Kidney, Av.” value [2, 8] was 2.51 % id/g, the “Biodistribution Liver, Av.” value [2, 8] was 5.22 % id/g and the “Biodistribution Muscle, Av.” value [2, 8] was 0.55 % id/g. For the same compound, the “Biodistribution Prostate, Av.” value [2, 8] was 1.16 % id/g, the “Biodistribution Blood, Av.” value [2, 9] was 0.36 % id/g and the “Biodistribution Blood, Rat 1” value [2, 9] was 0.3 % id/g. The “Biodistribution Blood, Rat 2” value [2, 9] was 0.42 % id/g, the “Biodistribution Kidney, Av.” value [2, 9] was 2.46 % id/g and the “Biodistribution Kidney, Rat 1” value [2, 9] was 2.24 % id/g. The “Biodistribution Kidney, Rat 2” value [2, 9] was 2.68 % id/g, the “Biodistribution Liver, Av.” value [2, 9] was 5.35 % id/g and the “Biodistribution Liver, Rat 1” value [2, 9] was 5.16 % id/g. For the same compound, the “Biodistribution Liver, Rat 2” value [2, 9] was 5.55 % id/g, the “Biodistribution Muscle, Av.” value [2, 9] was 0.53 % id/g and the “Biodistribution Muscle, Rat 1” value [2, 9] was 0.48 % id/g. The “Biodistribution Muscle, Rat 2” value [2, 9] was 0.57 % id/g, the “Biodistribution Prostate, Av.” value [2, 9] was 1.17 % id/g and the “Biodistribution Prostate, Rat 1” value [2, 9] was 1.22 % id/g. For the same compound, the “Biodistribution Prostate, Rat 2” value [2, 9] was 1.12 % id/g and the “activity in the bladder” value [3] was “No activity was observed in the bladder”.
